In patent publication US20240060990A1, “SPATIAL SIGNALING NETWORKS FOR MULTIPLEXED DRUG RESPONSE MEASUREMENT AND MODELING” (Georgia Tech Research Corporation, priority 2022, published 2024):
Entries after “also recorded” stand apart in the source; their conditions may differ.

Columns and labels:
p-ERK = conditions: up to 24 hours; cited from earlier work
PC9 cells [1] = experiment: Cell survival: cell number on coverslip counted in ImageJ; type: cell-based, human
Experimental: The cell survival was measured based on the cell number on the coverslip. […] The cells were stained with p-EGFR, and β-tubulin and three ROIs were imaged for each concentration at 40×. The cell number on each ROI was counted in ImageJ following the steps: import the Channel image, make binary, convert it to masks, analyze particles, and then choose “masks” under the “show” option.

Cyclin E/CDK2 [2] = experiment: RapMPI (multiplexed PLA) PPI counts in HCC827 cells; type: cell-based, human; conditions: 100 nM, 12 h, 5 PPI dataset
Experimental: (§1) Following that, the cells were then fixed and permeabilized with 1.6% formaldehyde in 1×PBS for 10 minutes at RT and 0.5% Triton X-100 for 10 minutes at RT, respectively. The cells were then blocked using a cell staining medium (CSM) containing 0.5% BSA, and 0.02% Sodium Azide in PBS. […] HCC827 cells were stained with p-ERK overnight followed by 1-hour incubation of secondary antibodies at RT, and 10 mins DAPI staining. The cells were then imaged at 40× magnification, and the intensity levels were analyzed. […] The coverslip was mounted to an acrylic holder for multiple cycles of staining.
(§2) RapMPI on cell cultures: For single color detection, each coverslip prepared with cells was stained with multiple PPIs with one PPI per cycle. The cells were fixed, permeabilized, and then ready for the following staining steps: 1) block the sample with Duolink blocking solution; 2) incubate it with one pair of proteins, conjugated to one PLUS and one MINUS oligonucleotide at 4° C. overnight.
(§3) PPI detection: PPI signals were detected using a custom algorithm leveraging a traditional image processing pipeline. More specifically, each PPI image was preprocessed as followed: images were first transformed using a top-hat filter of size 3 pixels to reduce the noise around PPI signals, then Laplacian of Gaussian images was used to detect bright local maxima as PPI signals. In 3D images, double detection of PPI was filtered out at the same position in consecutive Z stacks. After detecting all the PPI locations in 3D, PPI was observed within a 2.5-pixel radius (0.045 um) by creating a PPI neighborhood graph of radius threshold 2.5 pixels and getting all connected components in the graph. Finally, the mean position of the unique connected components in the graph was extracted as identified unique PPI signals in 3D.

p-ERK/c-Myc = experiment: as above; type: cell-based, human
Experimental: as §1, §2, §3

p-AKT/mTOR = experiment: as above; type: cell-based, human; conditions: 100 nM, 12 h, 5 PPI dataset
Experimental: as §1, §2, §3

PC9 cells [3] = experiment: Subpopulation clustering of single cells (Leiden); type: cell-based, human; conditions: 40 nM
p-EGFR (Y1173) = conditions: PC9 cells; cited from earlier work
Mcl-1/Bak = conditions: HCC827 cells, 100 nM, 12 h, 5 PPI dataset
Experimental: as §1, §2
PPI detection: PPI signals were detected using a custom algorithm leveraging a traditional image processing pipeline. More specifically, each PPI image was preprocessed as followed: images were first transformed using a top-hat filter of size 3 pixels to reduce the noise around PPI signals, then Laplacian of Gaussian images was used to detect bright local maxima as PPI signals. […]

PC9 cells [4] = experiment: Pearson correlation of single-cell mean marker intensity (RapMIF); type: cell-based, human
Experimental: Correlation analysis: Correlation between pairs of cells was performed based on the mean intensity level for a pair of markers across all the cells (FIGS. 5A-5F). The correlation between pairwise markers at the cell level was investigated to identify co-expression patterns. For the correlation analysis, the Pearson correlation of pairwise markers at the single-cell level was quantified by using the mean intensity distribution for pairs of markers across the cells (FIGS. 5E-5F, FIGS. 7C-7D). The per cell mean intensity was first extracted for all markers to obtain a vector of mean intensities per cell. The nuclei and cytosol region were then separated for each cell and extracted one vector of mean intensities in the cytosol and another vector of mean intensities in the nuclei per cell. To confirm the bleaching efficiency, the mean intensity correlations of the before and after bleach images was compared. The 3-way correlation was calculated with the adjusted-R^2 value of the linear regression model of one marker predicted by the two others. Specifically, the expression of the maker on the z-axis was predicted by the two markers on the x and y-axis using a 3D scatter plot.

MEK/ERK signaling = experiment: RapMPI on HCC827 xenograft tissue; type: in vivo, mouse; conditions: 2-month vs 1-week treatment
Text: (§4) Tissues: HCC827-derived mouse xenografts were provided by Dr. Sun Shi-yong (Emory University). […] Mice were then euthanized, and the tumor was embedded in OCT for sectioning. The OCT tissues were fixed in acetone, rehydrated, permeabilized in 0.4% Triton X-100, blocked, and ready for multiplexed experiments.
(§5) The staining settings were the same as the RapMPI in cell cultures. The blocking step between cycles for tissue multiplexing was skipped to avoid hiding the signals. The tissue samples were mounted with 10% glycerol made in 1×PBS and covered the slide using a 24×50 mm No. 1 coverslip (3322, Thermo Scientific) to prevent evaporation during imaging. To de-coverslip the sample after imaging, the slide was placed in a vertical jar containing 1×PBS for around 10 minutes, and the coverslip was released due to gravity.
(§6) To avoid loss of PPI information due to cell segmentation error, a nearest-distance-based assignment method was used to assign the PPI signal detected and not in any cell segmentation mask. For each PPI signal not in any segmented cell regions, the nearest cell mask pixel was observed and if the distance was lower than a user-defined value, it was assigned to the cell to which the nearest cell mask pixel belonged.

AKT/mTOR pathways = experiment: RapMPI on HCC827 xenograft tissue; type: in vivo, mouse; conditions: 2-month vs 1-week treatment
Text: as §4, §5, §6

cyclin E/CDK2 [5] = experiment: RapMPI on HCC827 xenograft tissue; type: in vivo, mouse; conditions: 1-week treatment (responders)
Text: as §4, §5, §6

[6] = system: HCC827-derived mouse xenografts; experiment: Tumor growth of HCC827-derived xenografts in mice; type: in vivo; conditions: daily Osimertinib
p-AKT (S473) = conditions: PC9 cells; cited from earlier work
HCC827 cells = experiment: PPI network motif frequency in HCC827 cells; type: cell-based, human
Text: Spatial Graph Construction: For each detected PPI in a cell, the corresponding 2D or 3D localization was extracted, and a node was assigned in the created graph. The node labels are assigned by creating a one-hot encoding of the corresponding PPI detected for the node. Delaunay triangulation was used to create edges connecting the nodes in the graph and therefore create a PPI spatial graph for each cell. The models are trained in a multi-instance learning framework, that is a cell label for each instance was assigned based on the cell treatment condition of a group.

Question: For `C=CC(=O)Nc1cc(Nc2nccc(-c3cn(C)c4ccccc34)n2)c(OC)cc1N(C)CCN(C)C` [Osimertinib], which “p-ERK, total protein level by western blot” value (p-ERK) is on record?
Answer: The value was “inhibitory role of Osimertinib on p-ERK for up to 24 hours”.

Question: And the “cell viability, higher vs lower drug concentrations” value (PC9 cells [1]; 48-hour treatment)?
Answer: Its value is “further decreased the cell viability”.

Question: And the “number of cells adhering to the coverslips” value (PC9 cells [1]; 48-hour treatment, 0, 20, 40, 60 nM)?
Answer: Its value is “decreased as the drug concentration has increased; also recorded: reduced the number of adherent PC9 cells compared to untreated ones”.

Question: And the “interaction between cyclin E and CDK2 (PPI count)” value (Cyclin E/CDK2 [2])?
Answer: The value was “effectively inhibited”.

Question: And the “P-ERK/c-Myc interactions (PPI count)” value (p-ERK/c-Myc; 100 nM, 12 h, 5 PPI dataset)?
Answer: Its value is “significantly increased interactions; also recorded: upregulation”.

Question: What about the “p-ERK/c-Myc PPI” value (p-ERK/c-Myc; 12 hours, 9 PPI dataset) of the same compound?
Answer: Its value is “effectively inhibited”.

Question: What about the “p-AKT/mTOR interactions in the cytoplasm” value (p-AKT/mTOR) of the same compound?
Answer: The value was “downregulated the p-AKT/mTOR pathway reducing the interactions in the cytoplasm”.

Question: What about the “distribution of treated cells over 12 subpopulations” value (PC9 cells [3]) of the same compound?
Answer: The value was “mainly distributed in subpopulation 3 and subpopulation 0”.

Question: What about the “p-EGFR (Y1173) level” value (p-EGFR (Y1173)) of the same compound?
Answer: The value was “decreased the p-EGFR (Y1173) level”.

Question: And the “Mcl1/Bak interaction (PPI count), cytoplasm or whole cell” value (Mcl-1/Bak)?
Answer: The value was “did not exhibit an obvious change”.

Question: And the “correlation of WNT1 with p-AKT” value (PC9 cells [4]; 40 nM)?
Answer: The value was “high correlation with p-AKT in the presence of the drug”.

Question: What about the “correlation between p-EGFR and non-p-β-catenin” value (PC9 cells [4]; 40 nM vs control) of the same compound?
Answer: The value was “higher positive correlation between p-EGFR and non-p-β-catenin compared to the control”.

Question: And the “correlation of p-EGFR with p-AKT (single-cell mean intensity)” value (PC9 cells [4]; 40 nM, 48 hours)?
Answer: The value was “high correlation to p-AKT after drug treatment”.

Question: What about the “correlation of WNT1 with p-EGFR” value (PC9 cells [4]; control and 40 nM) of the same compound?
Answer: Its value is “low correlation with p-EGFR in both conditions”.

Question: And the “MEK/ERK signaling in pan-cytokeratin positive regions” value (MEK/ERK signaling)?
Answer: Its value is “enhanced”.

Question: What about the “AKT/mTOR pathways in pan-cytokeratin positive regions” value (AKT/mTOR pathways) of the same compound?
Answer: The value was “downregulating”.

Question: What about the “cyclin E/CDK2 PPI in responders” value (cyclin E/CDK2 [5]) of the same compound?
Answer: Its value is “downregulation”.

Question: And the tumor ([6]; 5-day treatment)?
Answer: Its tumor is “almost disappeared”.

Question: What about the “tumor as treatment continued (acquired resistance)” value ([6]; continued treatment) of the same compound?
Answer: The value was “grew back and larger”.

Question: And the xenograft growth ([6]; first week)?
Answer: Its xenograft growth is “effectively inhibited for the first week”.

Question: What about the “p-AKT (S473) level” value (p-AKT (S473)) of the same compound?
Answer: The value was “effectively inhibit the p-AKT (S473) level”.

Question: What about the “motif 9 (p-ERK/c-Myc & p-ERK/c-Myc) autoregulation” value (HCC827 cells; 5 PPI network) of the same compound?
Answer: Its value is “Increased autoregulation”.

Question: And the “three-node motif 17 (Tead1/Yap&Tead1/Yap& p-ERK/c-Myc)” value (HCC827 cells; 5 PPI network)?
Answer: The value was “more interactions”.

Question: What about the “autoregulation of cyclin D1/CDK2 in motif 0 and motif 45” value (HCC827 cells; 9 PPIs dataset) of the same compound?
Answer: Its value is “inhibited”.

Question: And the “interaction between sox2/oct4 and Cyclin D1/CDK4 (motif 2, motif 47)” value (HCC827 cells; 9 PPIs dataset)?
Answer: Its value is “downregulation”.
